This note sets out measurements from ChEMBL document CHEMBL5029168, “Discovery of novel ID2 antagonists from pharmacophore-based virtual screening as potential therapeutics for glioma” (Bioorg Med Chem, 2021).

Data set [1] concerns GL261. The data set can be described thus: Induction of apoptosis in mouse GL261 cells assessed as late apoptotic cells at 25 uM measured after 24 hrs by annexin V-FITC/propidium iodide staining based flow cytometry analysis (reference value: 1.01%). In kind it is functional.
Data set [2] has as its system U-87 MG. In words: Induction of apoptosis in human U87 cells assessed as early apoptotic cells at 25 uM measured after 24 hrs by annexin V-FITC/propidium iodide staining based flow cytometry analysis (reference value: 4.35%). In kind it is functional, U-87MG ATCC.
Data set [3] relates to U87. The data set can be described thus: Inhibition of ID2/KDR signalling in human U87 cells assessed as decrease in VEGFA protein level measured after 24 hrs by western blot analysis. In kind it is cell-based. Conditions: filed as antagonist. On the technique in general: In western blotting, separated proteins are transferred to a membrane and probed.
The nature of data set [4]: Toxicity in NCG mouse xenografted with human U87 cells assessed as heart damage at 2.5 mg/kg, ip administered every other day for 5 days and measured after 7 days post first dose by H and E staining based assay. In kind it is organism-based. Conditions: in vivo, 168 h, time 7 day. For orientation: Xenograft models place foreign cells or tissue in a host animal.
For data set [5], the system named is U-87 MG. The data set can be described thus: Antiinvasive activity against human U87 cells assessed as inhibition of cell invasion measured after 24 hrs by crystal violet staining based inverted microscopic analysis. The settings on record: U-87MG ATCC. In kind it is functional.
The subject of data set [6] is GL261. The data set can be described thus: Antimigratory activity against mouse GL261 cells assessed as reduction in wound closure at 12.5 uM measured up to 24 hrs by scratch wound healing assay (Rvb =63.3+/-0.78%). In kind it is functional. More on the design: scale not given: the % may be the effect or the level left. The settings on record: time hrs <=24.
Data set [7] deals with GL261. The data set can be described thus: Antiinvasive activity against mouse GL261 cells assessed as inhibition of cell invasion measured after 24 hrs by crystal violet staining based inverted microscopic analysis. In kind it is functional.
Data set [8] concerns U87. In words: Inhibition of ID2/KDR signalling in human U87 cells assessed as reduction in MMP2 expression at 12.5 to 50 uM measured after 24 hrs by western blot analysis. In kind it is cell-based. The settings on record: filed as antagonist, dose 12.5-50 µM.
A short description of data set [9]: Antitumor activity against human U87 cells xenografted in NCG mouse assessed as tumor growth inhibition at 2.5 mg/kg, ip administered every other day for 5 days relative to control. On the set-up: scale not given: the % may be the effect or the level left. In kind it is functional, U-87MG ATCC. Conditions: time 5 day.
The species named for data set [10] is Homo sapiens. The data set can be described thus: Binding affinity to CM5 sensor chip immobilized human ID2 assessed as association constant by SPR analysis. Conditions: filed as antagonist. On the technique in general: SPR reads the build-up and loss of mass on a sensor chip optically.
The species named for data set [11] is Homo sapiens. The data set can be described thus: Binding affinity to CM5 sensor chip immobilized human ID2 assessed as maximum response by SPR analysis. The settings on record: filed as antagonist.
Data set [12] can be described thus: Aqueous solubility of compound at up to 80 uM measured after 10 mins by optical microscopic analysis. In kind it is physicochemical. The settings on record: buffer.
The subject of data set [13] is U-87 MG. The data set can be described thus: Induction of apoptosis in human U87 cells assessed as viable cells at 50 uM measured after 24 hrs by annexin V-FITC/propidium iodide staining based flow cytometry analysis (reference value: 89.6%). In kind it is functional, U-87MG ATCC. Conditions: read-out: Activity.

Active and inactive are the calls of the source. No cut-off for these calls is given here.

Consider `O=C(C[C@@]1(O)C(=O)N(Cc2cccc(Cl)c2)c2ccccc21)c1ccccn1`, for which the Activity was 16% in [1]; 45.4% in data set [2]; “Non-Toxic” in data set [4]; “Dose-Dependent Effect” in [5]; 13.11% in data set [6]; “Dose-Dependent Effect” in [7]. Besides, the Activity in data set [9] was determined as 49.7%. Further, the inhibition entry in data set [3] was “Dose-Dependent Effect”. In addition, the inhibition entry in data set [8] is “Active”. Further, the Ka in [10] is 24.8 M⁻¹ s⁻¹. For the same compound, the Rmax in [11] was 83.6 RU. Also, the solubility result in data set [12] was “Soluble”. Also, the viability at 50 µM in data set [13] was 2.61%.
